The values that follow come from US9796711B2, “Substituted pyrazolo[3,4-b]pyridin-6-carboxylic acids and method of use” (AbbVie S.àr.l., priority 2015, dated 2017).

Assay [1] addresses T1, ΔF508-CFTR (Homo sapiens, UniProt P13569, DEL508-508).
T1 construct: host or cells: CFBE41o-, doxycycline-inducible
Kind of assay: CFTR cell surface levels using HRP-tagged ΔF508-CFTR expressing CFBE cells, in the presence of a co-corrector. It is filed as cell-based. To be noted: HRP-tagged ΔF508-CFTR expressing CFBE cells, in the presence of 3 μM co-corrector; for pEC50: read-out: EC50. The method, boiled down: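 Cells were seeded with 0.5 μg/mL doxycycline and held 68 h at 37 °C. Test compounds plus 3 μM co-corrector (final 0.1% DMSO) were then added for 20 h at 33 °C. Washed cells received HRP substrate, and luminescence was normalized between DMSO and 3 μM co-corrector controls.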

Assay [2] has as its target T1, ΔF508-CFTR. Kind of assay: CFTR cell surface levels using HRP-tagged ΔF508-CFTR expressing CFBE cells, intrinsic corrector capacity. Type of assay: cell-based. Particulars: for pEC50: read-out: EC50. Put shortly:
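Here the cells express ΔF508-CFTR with horseradish peroxidase inserted in extracellular loop 4, so only rescued channel at the surface gives luminescent signal. Compounds act on their own, 20 h at the reduced temperature of 33 °C; values are percent activity relative to DMSO and a 3 μM corrector.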

Setting [3] is: HRP-tagged ΔF508-CFTR CFBE41o- cells, compounds alone (intrinsic corrector capacity), 20 hours at 33° C., positive control 3 μM corrector.
Setting [4] is: HRP-tagged ΔF508-CFTR CFBE41o- cells, compounds alone (intrinsic corrector capacity), 20 hours at 33° C.
The mark [5] stands for this setting: HRP-tagged ΔF508-CFTR expressing CFBE cells, intrinsic corrector capacity (no co-corrector), 33° C., 20 hours.

pEC50: −log10 of the molar value.

T1 sequence (P13569 with tags, fused parts or gaps DEL508-508): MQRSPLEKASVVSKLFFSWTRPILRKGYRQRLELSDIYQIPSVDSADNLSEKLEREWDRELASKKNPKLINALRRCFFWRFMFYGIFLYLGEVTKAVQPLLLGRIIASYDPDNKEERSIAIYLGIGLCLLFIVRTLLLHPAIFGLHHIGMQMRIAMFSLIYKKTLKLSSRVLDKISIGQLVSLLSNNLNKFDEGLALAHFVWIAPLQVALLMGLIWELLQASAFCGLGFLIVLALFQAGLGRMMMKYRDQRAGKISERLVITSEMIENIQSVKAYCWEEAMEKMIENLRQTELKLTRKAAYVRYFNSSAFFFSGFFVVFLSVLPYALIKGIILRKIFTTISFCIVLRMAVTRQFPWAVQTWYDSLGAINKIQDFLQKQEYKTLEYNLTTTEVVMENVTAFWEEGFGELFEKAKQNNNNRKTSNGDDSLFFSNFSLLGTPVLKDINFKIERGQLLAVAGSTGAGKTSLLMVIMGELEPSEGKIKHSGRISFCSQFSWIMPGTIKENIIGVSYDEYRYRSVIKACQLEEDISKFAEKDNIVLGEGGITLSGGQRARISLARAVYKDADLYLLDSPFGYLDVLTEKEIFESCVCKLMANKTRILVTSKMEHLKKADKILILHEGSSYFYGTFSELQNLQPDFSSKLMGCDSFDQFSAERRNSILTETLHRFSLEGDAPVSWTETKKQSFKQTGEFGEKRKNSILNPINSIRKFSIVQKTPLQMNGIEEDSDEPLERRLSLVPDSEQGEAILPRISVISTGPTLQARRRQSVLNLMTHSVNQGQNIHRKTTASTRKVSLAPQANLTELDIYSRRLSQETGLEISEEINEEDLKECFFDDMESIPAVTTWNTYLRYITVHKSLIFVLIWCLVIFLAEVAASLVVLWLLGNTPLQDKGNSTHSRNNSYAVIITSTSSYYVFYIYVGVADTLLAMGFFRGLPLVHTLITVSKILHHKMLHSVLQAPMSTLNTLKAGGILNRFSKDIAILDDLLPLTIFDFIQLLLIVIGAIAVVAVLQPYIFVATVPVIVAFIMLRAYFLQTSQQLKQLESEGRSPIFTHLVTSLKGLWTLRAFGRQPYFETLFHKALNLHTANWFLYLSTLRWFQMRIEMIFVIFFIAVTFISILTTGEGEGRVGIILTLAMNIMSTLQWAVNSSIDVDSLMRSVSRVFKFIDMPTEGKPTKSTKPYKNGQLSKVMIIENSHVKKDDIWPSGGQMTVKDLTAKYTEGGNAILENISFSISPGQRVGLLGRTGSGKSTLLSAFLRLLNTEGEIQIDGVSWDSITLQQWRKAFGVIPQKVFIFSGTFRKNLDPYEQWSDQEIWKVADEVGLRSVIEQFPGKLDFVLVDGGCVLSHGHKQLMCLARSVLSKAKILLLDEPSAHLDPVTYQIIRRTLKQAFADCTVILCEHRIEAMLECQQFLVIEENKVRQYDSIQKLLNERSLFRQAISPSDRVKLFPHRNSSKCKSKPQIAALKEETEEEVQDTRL

The pEC50 is the negative decadic logarithm of the EC50, by convention in mol/L. Consider `Cc1nn(-c2ccccc2)c2nc(C(=O)O)cc(-c3ccc(N(C)C4CCOCC4)nc3)c12` [compound 168, 3-methyl-4-{6-[methyl(oxan-4-yl)amino]pyridin-3-yl}-1-phenyl-1H-pyrazolo[3,4-b]pyridine-6-carboxylic acid], for which the “% Activation” value on ΔF508-CFTR [1] came to 379.07%; at ΔF508-CFTR [2] (setting [3]), 190.23%. The results for the pEC50 on ΔF508-CFTR [1] and on ΔF508-CFTR [2] (setting [4]) were 6.16 and 5.89, respectively.
Regarding `O=C(O)c1cc(N2C[C@@H](F)C[C@@H]2CO)c2c(C3CCC3)nn(-c3ccccc3)c2n1` [compound 514, 3-cyclobutyl-4-[(2R,4S)-4-fluoro-2-(hydroxymethyl)pyrrolidin-1-yl]-1-phenyl-1H-pyrazolo[3,4-b]pyridine-6-carboxylic acid], on ΔF508-CFTR [1], the “% Activation” value was 178.2% and the pEC50 is 5.48. At ΔF508-CFTR [2] (setting [5]), the “% Activation” value is 37.34% and the negative-log EC50 (pEC50) is 5.48.
On to `CC(C)c1nn(-c2ccc(F)cc2)c2nc(C(=O)O)cc(OCCC3CCOCC3)c12` [compound 604, 1-(4-fluorophenyl)-4-[2-(oxan-4-yl)ethoxy]-3-(propan-2-yl)-1H-pyrazolo[3,4-b]pyridine-6-carboxylic acid], for which the figures for the “% Activation” value on ΔF508-CFTR [1] and on ΔF508-CFTR [2] (setting [5]) were 292.2% and 142.9%, respectively. Besides, the pEC50 on ΔF508-CFTR [1] was 6.59; at ΔF508-CFTR [2] (setting [5]), 6.13.
With `Cc1nn(-c2ccccc2)c2nc(C(=O)O)cc(-c3cnc(N4CCOCC4)nc3)c12` [compound 15, 3-methyl-4-[2-(morpholin-4-yl)pyrimidin-5-yl]-1-phenyl-1H-pyrazolo[3,4-b]pyridine-6-carboxylic acid], the figures for the “% Activation” value on ΔF508-CFTR [1] and at ΔF508-CFTR [2] (setting [3]) were 282.5% and 98.68%, respectively. Further, the pEC50 at ΔF508-CFTR [1] is 5.59; on ΔF508-CFTR [2] (setting [4]), 5.57.
Consider `CC(C)c1nn(-c2cccc(N3CCOCC3)c2)c2nc(C(=O)O)cc(-c3cnc(N(C)C)nc3)c12` [compound 88, 4-[2-(dimethylamino)pyrimidin-5-yl]-1-[3-(morpholin-4-yl)phenyl]-3-(propan-2-yl)-1H-pyrazolo[3,4-b]pyridine-6-carboxylic acid], for which the “% Activation” value at ΔF508-CFTR [1] was determined as 453.15%; at ΔF508-CFTR [2] (setting [3]), 288.95%. In addition, the pEC50 at ΔF508-CFTR [1] was 6.28; on ΔF508-CFTR [2] (setting [4]), 6.16.
For `COCCN(C)c1ccc(-c2cc(C(=O)O)nc3c2c(C(C)C)nn3C2CCCCC2)cn1` [compound 170, 1-cyclohexyl-4-{6-[(2-methoxyethyl)(methyl)amino]pyridin-3-yl}-3-(propan-2-yl)-1H-pyrazolo[3,4-b]pyridine-6-carboxylic acid], in that order: 482.4%, 208.6%, 6.30 and 6.13.
Take `O=C(O)c1cc(N2CCN(CCCO)CC2)c2c(C3CCC3)nn(-c3ccccc3)c2n1` [compound 471, 3-cyclobutyl-4-[4-(3-hydroxypropyl)piperazin-1-yl]-1-phenyl-1H-pyrazolo[3 ,4-b]pyridine-6-carboxylic acid]: at ΔF508-CFTR [1], the “% Activation” value was 259.9% and the pEC50 is 5.52. Also, on ΔF508-CFTR [2] (setting [5]), the “% Activation” value was 106.45% and the pEC50 was 5.48.
Taken in the same sequence, the figures for `O=C(O)c1cc(N2CCC(CN3CCC4(CC3)COC4)CC2)c2c(C3CCC3)nn(-c3ccccc3)c2n1` [compound 840, 3-cyclobutyl-4-{4-[(2-oxa-7-azaspiro[3.5]nonan-7-yl)methyl]piperidin-1-yl}-1-phenyl-1H-pyrazolo[3,4-b]pyridine-6-carboxylic acid] were 368.8%, 6.60, 164.4% and 6.40.
For the compound `Cc1nn(-c2ccccc2)c2nc(C(=O)O)cc(N3CC4(CCCCC4)C3)c12` [compound 309, 4-(2-azaspiro[3.5]nonan-2-yl)-3-methyl-1-phenyl-1H-pyrazolo[3,4-b]pyridine-6-carboxylic acid], the “% Activation” value came out at 237.3% on ΔF508-CFTR [1] and 67.305% at ΔF508-CFTR [2] (setting [3]). The pEC50 on ΔF508-CFTR [1] was 5.88; on ΔF508-CFTR [2] (setting [4]) it was 5.87.
